# Assay results published in patent publication US4160829A, “Antibacterial 1,2,4-oxadiazolylacetamido cephalosporins” (Gist-Brocades N.V., priority 1972, dated 1979).
# Where two headings read alike, the source gives them in different places.
# What was measured:
# Prot.morg. 2241 = assay: agar serial dilution test; type: cell-based; conditions: agar serial dilution, 24 hours, 37° C.
# Staph.aureus A 355 [1] = assay: micro serial dilution test; type: cell-based, Staphylococcus aureus; conditions: micro serial dilution (in brackets), about 18 hours, 30° C. or 37° C., penicillinase-producing strain
# [2] = test system: Pseud.aerug. Wyeth A 1058; assay: agar serial dilution test; type: cell-based; conditions: agar serial dilution, 24 hours, 37° C.
# Proteus mirabilis A 1200 = assay: protection test; type: in vivo; conditions: s.c.; for ED50: protection test
# Strep.haem A 1088 = assay: agar serial dilution test; type: cell-based, Streptococcus haemolyticus; conditions: Streptococcus, A1088, 24 hours, 37° C., read-out: minimal inhibitory concentration (MIC)
# Actinob.equ. T 3 = assay: agar serial dilution test; type: cell-based; conditions: 24 hours, 37° C., read-out: minimal inhibitory concentration (MIC)
# Staph.aureus A 321 = assay: agar serial dilution test; type: cell-based, Staphylococcus aureus; conditions: agar serial dilution, 24 hours, 37° C.
# Pseud.aerug. H 10 = assay: agar serial dilution test; type: cell-based; conditions: agar serial dilution, 24 hours, 37° C.
# Staph.aureus A 2000 [3] = assay: agar serial dilution test; type: cell-based, Staphylococcus aureus; conditions: agar serial dilution, 24 hours, 37° C.
# Haem.Suis A 2096 = assay: micro serial dilution test; type: cell-based; conditions: micro serial dilution (in brackets), about 18 hours, 30° C. or 37° C.; read-out: minimal inhibitory concentration (MIC)
# Kleb.pneum. A 809 = assay: agar serial dilution test; type: cell-based, Klebsiella pneumoniae; conditions: Klebsiella pneumoniae; agar serial dilution, 24 hours, 37° C.; read-out: minimal inhibitory concentration (MIC)
# Esch.coli U 20 = assay: agar serial dilution test; type: cell-based, Escherichia coli; conditions: Escherichia coli, U20; agar serial dilution, 24 hours, 37° C.; read-out: minimal inhibitory concentration (MIC)
# Past.multo. A 723 = assay: agar serial dilution test; type: cell-based, Pasteurella multocida; conditions: agar serial dilution, 24 hours, 37° C.
# Proteus rettgeri A 821 = assay: protection test; type: in vivo; conditions: s.c.
# Staph.aureus A 355 [4] = assay: agar serial dilution test; conditions: penicillinase-producing strain
# Strep. faec. L 80 = assay: agar serial dilution test; type: cell-based, Streptococcus faecalis; conditions: agar serial dilution, 24 hours, 37° C.
# Prot.mirab. H 3 = assay: agar serial dilution test; type: cell-based, Proteus mirabilis; conditions: Proteus mirabilis
# [5] = test system: Klebsiella pneumoniae A 265; assay: protection test; type: in vivo; conditions: i.p.
# Bac.Subt.ATCC 6633 = assay: agar serial dilution test; type: cell-based, Bacillus subtilis; conditions: agar serial dilution, 24 hours, 37° C.
# Prot.mirab. A 1200 [6] = assay: agar serial dilution test; type: cell-based, Proteus mirabilis; conditions: agar serial dilution, 24 hours, 37° C.
# Dipl.pneum. L 54 = assay: agar serial dilution test; type: cell-based, Diplococcus pneumoniae; conditions: Streptococcus pneumoniae; agar serial dilution, 24 hours, 37° C.; read-out: minimal inhibitory concentration (MIC)
# Bruc. Suis A 2126 = assay: agar serial dilution test; type: cell-based; conditions: Brucella suis, 24 h, read-out: minimal inhibitory concentration (MIC)
# Staph.aureus A 2001 [7] = assay: agar serial dilution test; type: cell-based, Staphylococcus aureus; conditions: agar serial dilution, 24 hours, 37° C.
# Sarc. lutea ATCC 9341 = assay: micro serial dilution test; type: cell-based; conditions: Micrococcus luteus, ATCC9341; micro serial dilution (in brackets), about 18 hours, 30° C. or 37° C.; read-out: minimal inhibitory concentration (MIC)
# Prot.mirab. A 1200 [8] = assay: micro serial dilution test; type: cell-based; conditions: Proteus mirabilis; micro serial dilution (in brackets), about 18 hours, 30° C. or 37° C.; read-out: minimal inhibitory concentration (MIC)
# Prot.mirab. L 93 = assay: agar serial dilution test; type: cell-based, Proteus mirabilis; conditions: Proteus mirabilis; agar serial dilution, 24 hours, 37° C.; read-out: minimal inhibitory concentration (MIC)
# Staph.aureus A 2000 [9] = assay: micro serial dilution test; type: cell-based, Staphylococcus aureus; conditions: micro serial dilution (in brackets), about 18 hours, 30° C. or 37° C.
# Pseud.aerug. 2396 = assay: agar serial dilution test; type: cell-based; conditions: agar serial dilution, 24 hours, 37° C.
# Salm.dubl. P 43 = assay: agar serial dilution test; type: cell-based, Salmonella dublin; conditions: agar serial dilution, 24 hours, 37° C.
# Staph.aureus A 2001 [10] = assay: micro serial dilution test; type: cell-based, Staphylococcus aureus; conditions: micro serial dilution (in brackets), about 18 hours, 30° C. or 37° C.
# Salm.typh. R 172 = assay: agar serial dilution test; type: cell-based; conditions: 24 h, read-out: minimal inhibitory concentration (MIC)
# Prot.rettg. A 821 = assay: agar serial dilution test; type: cell-based, Proteus rettgeri; conditions: agar serial dilution, 24 hours, 37° C.
# Klebsiella pneumoniae = assay: protection test; type: in vivo; conditions: ip, protection test, i.p., read-out: ED50
# acute toxicity in mice = conditions: mouse, in vivo, ip; mice (Swiss), one intraperitoneal administration
# Description: (a) For sodium 7-[(3-methyl-1,2,4-oxadiazol-5-yl)-acetamido]-cephalosporanate (as prepared in Example 10), the acute toxicity was determined in mice (Swiss) with one intraperitoneal administration. The LD50 appeared to be >6000 mg/kg (Cephalotin-LD50 >6000 mg/kg).
# Shig.equir. T 3 = assay: agar serial dilution test; type: cell-based; conditions: 24 hours, 37° C.
# Escherichia coli = assay: protection test; type: in vivo; conditions: ip
# in vivo = assay: in vivo; design: species or system rabbits; conditions: rabbit, im, 50 mg/kg
# Description: Blood levels of the above mentioned test compound and of cephalotin were determined after an intramuscular administration of 50 mg/kg of these compounds in an aqueous solution in rabbits. After half an hour for the compound of Example 10, a value of 38.3 μg/ml was found and for cephalotin 33.9 μg/ml. In urine, 35.9% of the administered compound of Example 10 was retrieved, while in the case of cephalotin 22.2% was retrieved within six hours.
# [11] = test system: Staph. aureus pen.resistant; assay: protection test; type: in vivo; conditions: Staphylococcus aureus, sc
# Salm.typh. R 127 = assay: agar serial dilution test; type: cell-based; conditions: 24 hours, 37° C.
# Proteus rettgeri = assay: protection test; type: in vivo; conditions: Providencia rettgeri, sc; protection test, s.c.; read-out: ED50
# Bruc.melit. A 488 = assay: microbe, parasite or virus in culture; type: cell-based; conditions: Brucella melitensis, 24 h, read-out: minimal inhibitory concentration (MIC)
# Haem.infl. A 1030 = assay: micro serial dilution test; type: cell-based; conditions: micro serial dilution (in brackets), about 18 hours, 30° C. or 37° C.
# Strep.haem. A 266 = assay: agar serial dilution test; type: cell-based, Streptococcus haemolyticus; conditions: Streptococcus; agar serial dilution, 24 hours, 37° C.; read-out: minimal inhibitory concentration (MIC)
# [12] = read-out: minimal inhibitory concentration (MIC)
smiles,measurement,setting,value
"Cn1nnnc1SCC1=C(C(=O)O)N2C(=O)[C@@H](NC(=O)Cc3nc(CC(=O)O)no3)[C@H]2SC1 [Compound F, disodium 7-[(3-carboxymethyl-1,2,4-oxadiazol-5-yl)-acetamido]-3[1-methyl-tetrazol-5-yl-mercaptomethyl] 3-cephem-4-carboxylate]",MIC,"Prot.morg. 2241; 24 h, read-out: minimal inhibitory concentration (MIC)",25 µg/mL
same,MIC,"Staph.aureus A 355 [1]; Staphylococcus aureus, A355, read-out: minimal inhibitory concentration (MIC)",6 µg/mL
same,MIC,[2]; [12],100 µg/mL
same,ED50,"Proteus mirabilis A 1200; Proteus mirabilis, A1200, sc, read-out: ED50",2.2 mg/kg
same,ED50,Proteus mirabilis A 1200,"1,35 mg/kg"
same,Potency ratio,Proteus mirabilis A 1200; reference Cefalotin,"6,9"
same,Potency ratio,Proteus mirabilis A 1200; reference Cefazolin,"6,5"
same,MIC,Strep.haem A 1088,3 µg/mL
same,MIC,Actinob.equ. T 3,0.5 µg/mL
same,MIC,"Staph.aureus A 321; Staphylococcus aureus, A321, 24 h, read-out: minimal inhibitory concentration (MIC)",3 µg/mL
same,MIC,Pseud.aerug. H 10; [12],100 µg/mL
same,MIC,"Staph.aureus A 2000 [3]; Staphylococcus aureus, A2000, 24 h, read-out: minimal inhibitory concentration (MIC)",6 µg/mL
same,MIC,Haem.Suis A 2096,0.23 µg/mL
same,MIC,Kleb.pneum. A 809,0.5 µg/mL
same,MIC,Esch.coli U 20,0.75 µg/mL
same,MIC,"Past.multo. A 723; Pasteurella multocida, read-out: minimal inhibitory concentration (MIC)",1 µg/mL
same,ED50,"Proteus rettgeri A 821; Providencia rettgeri, A821, sc, protection test",0.023 mg/kg
same,Potency ratio,Proteus rettgeri A 821; reference Cefalotin,> 5
same,MIC,"Staph.aureus A 355 [4]; Staphylococcus aureus, A355, 24 h, read-out: minimal inhibitory concentration (MIC), agar serial dilution, 24 hours, 37° C.",6 µg/mL
same,MIC,"Strep. faec. L 80; Enterococcus faecalis, read-out: minimal inhibitory concentration (MIC)",> 100 µg/mL
same,MIC,"Prot.mirab. H 3; agar serial dilution, 24 hours, 37° C., read-out: minimal inhibitory concentration (MIC)",1.5 µg/mL
same,ED50,"[5]; Klebsiella pneumoniae, A265, ip, protection test",16 mg/kg
same,Potency ratio,[5]; reference Cefalotin,"5,7"
same,MIC,"Bac.Subt.ATCC 6633; Bacillus subtilis, ATCC6633, 24 h, read-out: minimal inhibitory concentration (MIC)",1.5 µg/mL
same,MIC,"Prot.mirab. A 1200 [6]; Proteus mirabilis, 24 h, read-out: minimal inhibitory concentration (MIC)",3 µg/mL
same,MIC,Dipl.pneum. L 54,1 µg/mL
same,MIC,Bruc. Suis A 2126,1 µg/mL
same,MIC,"Staph.aureus A 2001 [7]; Staphylococcus aureus, A2001, 24 h, read-out: minimal inhibitory concentration (MIC)",6 µg/mL
same,MIC,Sarc. lutea ATCC 9341,3.7 µg/mL
same,MIC,Prot.mirab. A 1200 [8],1.2 µg/mL
same,MIC,Prot.mirab. L 93,1.5 µg/mL
same,MIC,"Staph.aureus A 2000 [9]; Staphylococcus aureus, A2000, 18 h, read-out: minimal inhibitory concentration (MIC)",4 µg/mL
same,MIC,Pseud.aerug. 2396; [12],100 µg/mL
same,MIC,"Salm.dubl. P 43; Salmonella enterica, read-out: minimal inhibitory concentration (MIC)",0.5 µg/mL
same,MIC,"Staph.aureus A 2001 [10]; Staphylococcus aureus, A2001, 18 h, read-out: minimal inhibitory concentration (MIC)",3.7 µg/mL
same,MIC,Salm.typh. R 172,0.75 µg/mL
same,MIC,"Prot.rettg. A 821; Providencia rettgeri, 24 h, read-out: minimal inhibitory concentration (MIC)",0.25 µg/mL
"CC(=O)OCC1=C(C(=O)O)N2C(=O)[C@@H](NC(=O)Cc3nc(C)no3)[C@H]2SC1 [Example 10, 7-[(3-methyl-1,2,4-oxadiazol-5-yl)-acetamido]-cephalosporanic acid]",minimal inhibitory concentration (MIC),Prot.morg. 2241,50 µg/mL
same,minimal inhibitory concentration (MIC),Staph.aureus A 355 [1],0.6 µg/mL
same,ED50,Klebsiella pneumoniae,2.3 mg/kg
same,LD50,acute toxicity in mice,> 6000 mg/kg
same,minimal inhibitory concentration (MIC),[2],> 100 µg/mL
same,minimal inhibitory concentration (MIC),Shig.equir. T 3,3 µg/mL
same,minimal inhibitory concentration (MIC),Staph.aureus A 321,0.25 µg/mL
same,ED50,Escherichia coli,120 mg/kg
same,minimal inhibitory concentration (MIC),Pseud.aerug. H 10,> 100 µg/mL
same,minimal inhibitory concentration (MIC),Staph.aureus A 2000 [3],1 µg/mL
same,MIC,Esch.coli U 20,6 µg/mL
same,concentration at 0.5 h,in vivo,38300 ng/mL
same,minimal inhibitory concentration (MIC),Past.multo. A 723,1.5 µg/mL
same,minimal inhibitory concentration (MIC),"Staph.aureus A 355 [4]; agar serial dilution, 24 hours, 37° C.",1 µg/mL
same,minimal inhibitory concentration (MIC),Strep. faec. L 80,50 µg/mL
same,MIC,"Prot.mirab. H 3; 24 h, read-out: minimal inhibitory concentration (MIC), agar serial dilution, 24 hours, 37° C.",12.5 µg/mL
same,minimal inhibitory concentration (MIC),Bac.Subt.ATCC 6633,0.25 µg/mL
same,ED50,[11],31 mg/kg
same,minimal inhibitory concentration (MIC),Prot.mirab. A 1200 [6],6 µg/mL
same,minimal inhibitory concentration (MIC),Staph.aureus A 2001 [7],1 µg/mL
same,minimal inhibitory concentration (MIC),Salm.typh. R 127,3 µg/mL
same,ED50,Proteus rettgeri,1.25 mg/kg
same,MIC,Bruc.melit. A 488,6 µg/mL
same,minimal inhibitory concentration (MIC),Haem.infl. A 1030,125 µg/mL
same,MIC,Prot.mirab. L 93,1.5 µg/mL
same,minimal inhibitory concentration (MIC),Staph.aureus A 2000 [9],0.9 µg/mL
same,minimal inhibitory concentration (MIC),Pseud.aerug. 2396,> 100 µg/mL
same,MIC,Strep.haem. A 266,0.03 µg/mL
same,minimal inhibitory concentration (MIC),Salm.dubl. P 43,3 µg/mL
same,minimal inhibitory concentration (MIC),Staph.aureus A 2001 [10],0.3 µg/mL
same,minimal inhibitory concentration (MIC),Prot.rettg. A 821,3 µg/mL
"O=C(O)Cc1nc(Cc2ccccc2)no1 [Example 12A, 3-benzyl-1,2,4-oxadiazol-5-yl-acetic acid]",antiphlogistic activity,antiphlogistic activity,antiphlogistic activity
